Blank lines part the entries; values can stand above or below the molecule they belong to.
Experiments:
[1] = tested on: HeLa cells; assay: Cytotoxic effect of drug released from drug-encapsulating hydrogels; type: cell-based; conditions: drug released from rGO:PEDOT:PSS/starPEG-KA7 hydrogels, diluted 10× or 100×
Method: The released compounds were diluted 10× or 100× times for the treatment.

[2] = Drug encapsulation and release from conductive hydrogels; type: physicochemical
Method: Because the networks of PEG-peptide/PEDOT:PSS hydrogel and the PEG-peptide/rGO:PEDOT:PSS hydrogels are amphipathic, they can bind to both hydrophobic and charged hydrophilic compounds. The encapsulation of hydrophilic and hydrophobic drug compounds was tested. PEDOT:PSS was premixed with either hydrophilic compound doxorubicin or hydrophobic compound paclitaxel, followed by adding 5 kD-PEG-KA7. […] Doxorubicin can be encapsulated with a concentration of 0.8 mg/mL, while 0.1 mg/mL paclitaxel can be encapsulated into the hydrogel. Paclitaxel in excess formed precipitate at the bottom. rGO:PEDOT:PSS was premixed with either doxorubicin or paclitaxel, followed by adding starPEG-KA7. […] Doxorubicin can be encapsulated with a concentration as high as 0.8 mg/mL, while 1.0 mg/mL paclitaxel can be encapsulated into the hydrogel. The hydrogels loaded with drugs were then incubated in PBS, and the release of drugs was monitored.

[3] = Electrochemical properties (cyclic voltammetry, impendency); type: physicochemical
Source text: The cyclic voltammetry (CV) curve of 5 kD-PEG-KA7/PEDOT:PSS is typical of PEDOT:PSS-based materials, showing the oxidation peak between +500 mV and +650 mV and reduction occurring between −100 mV and −50 mV (FIG. 3A). The structure-function relationship between chemical composition of the modular system and electrochemical properties was investigated

[4] = Hydrogel formation by mixing PEG-peptide conjugate with anionic polymer; type: physicochemical; conditions: (BX)n oligopeptide coupled to PEG-5 k (FIG. 1B)
Method: 14-kD-heparin ([…], 2.5 mM) and star-PEG-peptide conjugates (6.25 mM, 3.125 mM) were dissolved in physiologic phosphate buffer solution (1×PBS) water or cell culture medium with 2% fetal bovine serum (FBS). These solutions were dissolved in a ratio of 1:4 heparin:star-PEG-peptide-conjugate by obtaining 0.5 mM or 5 mM 14-kD-heparin and 2.5 mM or 5 mM star-PEG-peptide. The ligand/mol ratio was 2:1, 1:1 and 1:5 relative to the mol ratio of 14-kD-heparin and the star-PEG-peptide-conjugate. The mixtures were incubated within a time frame of one hour to overnight at room temperature […]. The gelling time spanned from present up to several hours depending on the applied peptide motif. A hydrogel was formed when it survived the addition of physiological phosphate buffer solution (1×PBS) pH 7.4 to the mixture after the incubation of the mixture over the prior night without mixing with the added solution.
L1-(BX)n peptides comprising a (BX)n peptide selected from KA7, KA5, KA3, KS7, KG7, RA7, and RG7, where X is alanine, glycine or serine (FIG. 1B), were synthesized. The thiol group of cysteine was used to link the peptides to maleimide-functionalized PEG by Michael-type addition reaction, while the tryptophan was used to facilitate the monitoring during HPLC purification and quantification (supporting information). It was first tested whether sulfated oligosaccharide could be replaced by PEDOT:PSS to form a stable hydrogel. starPEG-KA7 in PBS was mixed with PEDOT:PSS aqueous solution to final concentrations of 2.5 mM and 1%, respectively. […] Without conjugation to the oligopeptide, neither maleimide-functionalized nor amino-functionalized PEG formed a hydrogel with PEDOT:PSS.
Moreover, it is much easier to separate a linear PEG chain with two peptides from that with only one peptide, as compared to purify the starPEG with 4 peptides from a mixture of lower degree of modification. Therefore, in the following study, the hydrogel formation using linear PEG-peptides was investigated. […] To incorporate a cell adhesive motiv into the modular network, the RGDSP (SEQ ID NO: 25) sequence was added as part of the linker to the KA7 oligopeptide. […] L2 contains the RGDSP (SEQ ID NO: 25) sequence.
To test whether the non-covalent assembling approach can also be applied to other conductive polymers, the hydrogel formation using PEG-peptide or starPEG-peptide with graphene derivatives was investigated. While graphene has very poor water solubility, graphene oxide (GO) was used. […] Apparently, the carboxylic acid presented on graphene is not sufficient to form stable crosslinking with positively charged peptide-polymer.
Reducing GO in the present of PSS also led to water-soluble and conductive material rGO/PSS. Hydrogel formation using rGO:PSS or rGO:PEDOT:PSS (FIG. 5A) was tested. […]

[5] = 5 kD-PEG-KA7/PEDOT:PSS hydrogel
[6] = rGO:PEDOT:PSS/starPEG-KA7 hydrogel
[7] = the hydrogel (description, type not specified)

concentration that can be encapsulated [2, 5]: 800 µg/mL | concentration that can be encapsulated [2, 6]: 800 µg/mL | concentration that can be encapsulated [2, 7]: 800 µg/mL
Molecule: COc1cccc2c1C(=O)c1c(O)c3c(c(O)c1C2=O)C[C@@](O)(C(=O)CO)C[C@@H]3O[C@H]1C[C@H](N)[C@H](O)[C@H](C)O1 [Doxorubicin, doxorubicin]
effect on HeLa cells [1]: cytotoxic effect

concentration that can be encapsulated [2, 5]: 100 µg/mL | concentration that can be encapsulated [2, 6]: 1000 µg/mL | concentration that can be encapsulated [2, 7]: 1000 µg/mL
Molecule: CC(=O)O[C@H]1C(=O)[C@@]2(C)[C@H]([C@H](OC(=O)c3ccccc3)[C@]3(O)C[C@H](OC(=O)[C@H](O)[C@@H](NC(=O)c4ccccc4)c4ccccc4)C(C)=C1C3(C)C)[C@]1(OC(C)=O)CO[C@@H]1C[C@@H]2O [paclitaxel]
effect on HeLa cells [1]: cytotoxic effect

Molecule: CWGGRGDSP [L2, 14]
change of impendency / conductivity compared to 5 kD-PEG-KA7/PEDOT:PSS ([3]; alanine replaced by serine, or RGDSP added within linker): minor effect on the conductivity

Molecule: KAKAKAKAKA [KA5]
hydrogel formation with PEDOT:PSS [4]: formed homogeneous hydrogels

Molecule: KAKAKAKAKAKAKA [KA7]
hydrogel formation with PEDOT:PSS [4]: formed homogeneous hydrogels

Molecule: KSKSKSKSKSKSKS [KS7]
hydrogel formation with PEDOT:PSS [4]: formed homogeneous hydrogels

Molecule: RARARARARARARA [RA7]
hydrogel formation with PEDOT:PSS [4]: formed homogeneous hydrogels

effect on conductivity of hydrogel ([3]; 1 mM heparin in hydrogel of 1% PEDOT:PSS and 2.5 mM starPEG-KA7, versus 1% PEDOT:PSS and 2.5 mM 5 kD-PEG-KA7): enhanced the conductivity
Molecule: heparin
